This is an account of results in PMC4650693, “Characterization of two-step deglycosylation via oxidation by glycoside oxidoreductase and defining their subfamily” (Scientific Reports, 2015).

The test addresses T1, FAD-GO from Rhizobium sp. GIN611 (Rhizobium sp. GIN611, UniProt G9ILI7).
T1 construct: recombinant, expressed in E. coli Rosetta-gami 2 (DE3, pLysS)
T1 sequence (G9ILI7 1-561): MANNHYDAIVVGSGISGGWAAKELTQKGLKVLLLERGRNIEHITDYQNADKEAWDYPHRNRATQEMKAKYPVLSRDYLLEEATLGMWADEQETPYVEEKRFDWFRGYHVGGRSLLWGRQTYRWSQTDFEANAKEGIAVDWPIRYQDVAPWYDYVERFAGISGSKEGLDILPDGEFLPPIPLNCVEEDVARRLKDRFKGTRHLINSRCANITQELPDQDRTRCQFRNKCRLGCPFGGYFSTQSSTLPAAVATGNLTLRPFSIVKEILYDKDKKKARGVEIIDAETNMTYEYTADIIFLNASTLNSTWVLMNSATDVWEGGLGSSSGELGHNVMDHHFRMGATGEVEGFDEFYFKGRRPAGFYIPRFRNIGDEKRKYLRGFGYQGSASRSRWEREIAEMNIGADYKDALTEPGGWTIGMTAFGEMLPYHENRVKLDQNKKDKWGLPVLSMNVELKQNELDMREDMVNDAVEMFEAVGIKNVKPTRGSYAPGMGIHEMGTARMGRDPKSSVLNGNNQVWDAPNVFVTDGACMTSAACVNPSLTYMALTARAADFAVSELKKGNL
Briefly: HPLC of oxidation and deglycosylation products. Format: biochemical. The following applies: C3-OH of glucose oxidised; FAD enzyme, O2. The source says:
HPLC of oxidation and deglycosylation products on FAD-GO from Rhizobium sp.

For the compound `CC(C)=CCC[C@](C)(O[C@@H]1O[C@H](CO)[C@@H](O)[C@H](O)[C@H]1O)[C@H]1CC[C@]2(C)[C@@H]1[C@H](O)C[C@@H]1[C@@]3(C)CC[C@H](O)C(C)(C)[C@@H]3CC[C@]12C` [CK, Compound K], the “HPLC of oxidation and deglycosylation products” value is recorded as “HPLC chromatogram of enzyme reactions using wild type, H493F mutant or H493A mutant enzyme”.
